Experimental data reported in US9670189B2, “Substituted condensed pyrimidine compounds” (GRÜNENTHAL GMBH, priority 2013, dated 2017).

Molecular target: T1, human PDE4B1 (Homo sapiens, UniProt Q07343)
T1 construct: host or cells: Sf9 cells
Test: cAMP HTRF assay to determine the activity of hPDE4B1
Type: biochemical
Conditions: for inhibition at 1 µM: 1 μM test concentration, human recombinant PDE4B1, cAMP 40 nM, read-out: Inhibition at 1 μM test concentration [%] (Percentage inhibition of PDE4B); for IC50: measured according to the cAMP HTRF hPDE4B1 assay, read-out: PDE4B IC50
Method: cAMP HTRF® Assay to Determine the Activity of hPDE4B1
The inhibiting effect of the compounds on the enzyme activity of human PDE4B1 was measured by the quantification of 5′-adenosine monophosphate (5′-AMP), which is formed from 3′,5′-adenosine monophosphate (cAMP). Human recombinant enzyme, expressed in Sf9 cells, and the HTRF (homogeneous time-resolved fluorescence) detection method were used in the assay.
The test compound or water (control) was mixed with the human recombinant PDE4B1 enzyme (4.8 U) in a buffer consisting of 44.4 mM tris-HCl, 5.28 mM MgCl2, 2.64 mM DTT and 0.044% Tween 20 (pH 7.8). After adding the cAMP enzyme substrate (final concentration 40 nM) the mixture was incubated for 30 minutes at room temperature. Then a fluorescence acceptor (Dye2 marked with cAMP), a fluorescence donor (anti-cAMP antibody marked with a europium cryptate) and the non-specific phosphodiesterase inhibitor IBMX (3-isobutyl-1-methylxanthine; final concentration 1 mM) were added. After 60 minutes the fluorescence transfer, which correlates with the amount of remaining cAMP, was measured with a microplate reader (Rubystar, BMG) at λex=337 nm, λem=620 nm and λem=665 nm. The enzyme activity was calculated from the quotient formed from the measured signal at 665 nm and that at 620 nm. The result was expressed as the percentage inhibition of enzyme activity of the control (without PDE4 inhibitor) (literature: N. Saldou et al., Comparison of recombinant human PDE4 isoforms: interaction with substrate and inhibitors, Cell. Signal. Vol. 10, No. 6, 427-440, 1998). The enzyme was omitted for measurement of the basal control.

T1 sequence (Q07343 whole entry): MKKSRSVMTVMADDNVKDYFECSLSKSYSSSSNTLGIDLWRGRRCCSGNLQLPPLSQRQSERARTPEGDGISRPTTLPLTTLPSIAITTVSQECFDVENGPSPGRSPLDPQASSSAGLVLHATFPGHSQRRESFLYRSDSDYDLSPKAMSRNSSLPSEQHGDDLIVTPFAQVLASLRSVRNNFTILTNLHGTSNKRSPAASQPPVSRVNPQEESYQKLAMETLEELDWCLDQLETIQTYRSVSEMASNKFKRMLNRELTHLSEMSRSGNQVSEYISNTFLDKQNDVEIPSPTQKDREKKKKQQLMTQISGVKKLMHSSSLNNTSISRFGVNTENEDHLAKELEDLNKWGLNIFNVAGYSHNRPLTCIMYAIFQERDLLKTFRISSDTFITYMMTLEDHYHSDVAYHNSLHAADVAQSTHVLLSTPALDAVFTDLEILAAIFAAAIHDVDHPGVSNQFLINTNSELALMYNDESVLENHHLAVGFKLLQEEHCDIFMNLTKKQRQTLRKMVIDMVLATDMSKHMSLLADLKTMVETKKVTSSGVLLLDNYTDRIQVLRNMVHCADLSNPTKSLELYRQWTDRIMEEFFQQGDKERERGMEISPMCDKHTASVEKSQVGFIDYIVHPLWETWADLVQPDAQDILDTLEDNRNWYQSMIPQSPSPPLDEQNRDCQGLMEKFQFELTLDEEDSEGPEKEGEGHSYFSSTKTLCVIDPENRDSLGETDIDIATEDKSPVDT

| Structure (SMILES) | inhibition at 1 µM [%] | IC50 [µM] |
| --- | --- | --- |
| COc1ccc(-c2nc3c(c(Oc4ccc(CC(=O)O)cc4)n2)CCC3)cc1F [Compound 1, 2-(4-(2-(3-Fluoro-4-methoxyphenyl)-6,7-dihydro-5H-cyclopenta[d]pyrimidin-4-yloxy)phenyl)acetic acid] | 74 |  |
| COc1ccc(-c2nc3c(c(Oc4ccc(CC(=O)O)cc4)n2)CS(=O)(=O)C3)cc1 [Compound 18, 2-[4-[[2-(4-Methoxyphenyl)-6,6-dioxo-5,7-dihydro-thieno[3,4-d]pyrimidin-4-yl]oxy]-phenyl]-acetic acid] | 112 | < 0.1 |
| N#Cc1ccc(-c2nc3c(c(Oc4ccc(CC(=O)O)cc4)n2)CCC3)s1 [Compound 48, 2-(4-(2-(5-Cyanothiophen-2-yl)-6,7-dihydro-5H-cyclopenta[d]pyrimidin-4-yloxy)phenyl)acetic acid] | 78 |  |
| COc1ccc(-c2nc3c(c(Oc4ccc(CC(=O)O)cc4)n2)CCC3)cc1Cl [Compound 2, 2-(4-(2-(3-Chloro-4-methoxyphenyl)-6,7-dihydro-5H-cyclopenta[d]pyrimidin-4-yloxy)phenyl)acetic acid] | 75 |  |
| COc1ccc(-c2nc3c(c(Oc4ccc(C(=O)O)cc4)n2)CCC3)cc1Cl [Compound 5, 4-(2-(3-Chloro-4-methoxyphenyl)-6,7-dihydro-5H-cyclopenta[d]pyrimidin-4-yloxy)benzoic acid] | 71 |  |
| CC1Cc2nc(-c3ccc(Cl)s3)nc(Oc3ccc(CC(=O)O)cc3)c2C1 (stereo not drawn) [Compound 59, 2-(4-((2-(5-Chlorothiophen-2-yl)-6-methyl-6,7-dihydro-5H-cyclopenta[d]pyrimidin-4-yl)oxy)phenyl)acetic acid] | 62 |  |
| O=C(O)Cc1ccc(Oc2nc(-c3cncs3)nc3c2CCC3)cc1 [Compound 45, 2-(4-(2-(Thiazol-5-yl)-6,7-dihydro-5H-cyclopenta[d]pyrimidin-4-yloxy)phenyl)acetic acid] | 55 |  |
| O=C(O)Cc1ccc(Oc2nc(-c3ccc(F)s3)nc3c2CS(=O)(=O)C3)cc1 [Compound 15, 2-[4-[[2-(5-Fluoro-thiophen-2-yl)-6,6-dioxo-5,7-dihydro-thieno[3,4-d]pyrimidin-4-yl]oxy]-phenyl]-acetic acid] | 86 | < 0.1 |
| COc1ccc(-c2nc3c(c(Oc4ccc(C(=O)O)cc4)n2)CCC3)cc1F [Compound 4, 4-(2-(3-Fluoro-4-methoxyphenyl)-6,7-dihydro-5H-cyclopenta[d]pyrimidin-4-yloxy)benzoic acid] | 62 |  |
| O=C(O)c1ccc(Oc2nc(-c3ccc(Cl)s3)nc3c2CCC3)cc1 [Compound 8, 4-(2-(5-Chlorothiophen-2-yl)-6,7-dihydro-5H-cyclopenta[d]pyrimidin-4-yloxy)benzoic acid] | 84 |  |
| O=C(O)Cc1ccc(Oc2nc(-c3ccc(Cl)s3)nc3c2CS(=O)(=O)CC3)cc1 [Compound 24, 2-[4-[[2-(5-Chloro-thiophen-2-yl)-6,6-dioxo-7,8-dihydro-5H-thiopyrano[4,3-d]pyrimidin-4-yl]oxy]-phenyl]-acetic acid] | 33 |  |
| O=C(O)Cc1ccc(Oc2nc(-c3cccc(Br)c3)nc3c2CCC3)cc1 [Compound 54, 2-(4-((2-(3-Bromophenyl)-6,7-dihydro-5H-cyclopenta[d]pyrimidin-4-yl)oxy)phenyl)acetic acid] | 42 |  |
| Cc1ccc(-c2nc3c(c(Oc4ccc(CC(=O)O)cc4)n2)CCC3)s1 [Compound 58, 2-(4-((2-(5-Methylthiophen-2-yl)-6,7-dihydro-5H-cyclopenta[d]pyrimidin-4-yl)oxy)phenyl)acetic acid] | 65 |  |
| O=C(O)Cc1ccc(Cc2nc(-c3ccc(Cl)s3)nc3c2CCC3)cc1 [Compound 9, 2-(4-((2-(5-Chlorothiophen-2-yl)-6,7-dihydro-5H-cyclopenta[d]pyrimidin-4-yl)methyl)phenyl)acetic acid] | 75 |  |
| O=C(O)c1ccc(Oc2nc(-c3ccc(Cl)s3)nc3c2CCCC3)cc1 [Compound 11, 4-(2-(5-Chlorothiophen-2-yl)-5,6,7,8-tetrahydroquinazolin-4-yloxy)benzoic acid] | 44 |  |
| COc1ccc(-c2nc3c(c(Oc4ccc(CC(=O)O)cc4)n2)CS(=O)(=O)C3)cc1Cl [Compound 17, 2-[4-[[2-(3-Chloro-4-methoxy-phenyl)-6,6-dioxo-5,7-dihydro-thieno[3,4-d]pyrimidin-4-yl]oxy]-phenyl]-acetic acid] | 95 | < 0.1 |

| Structure (SMILES) | inhibition at 1 µM [%] | IC50 [µM] |
| --- | --- | --- |
| O=C(O)Cc1ccc(Oc2nc(-c3ccc(Cl)s3)nc3c2CC(F)(F)CC3)cc1 [Compound 12, 2-(4-(2-(5-Chlorothiophen-2-yl)-6,6-difluoro-5,6,7,8-tetrahydroquinazolin-4-yloxy)phenyl)acetic acid] | 23 |  |
| NC(=O)c1ccc(-c2nc3c(c(Oc4ccc(CC(=O)O)cc4)n2)CCC3)s1 [Compound 47, 2-(4-(2-(5-Carbamoylthiophen-2-yl)-6,7-dihydro-5H-cyclopenta[d]pyrimidin-4-yloxy)phenyl)acetic acid] | 79 |  |
| O=C(O)Cc1ccc(Oc2nc(-c3ccc(Cl)s3)nc3c2CCC3)cc1 [Compound 7, 2-(4-(2-(5-Chlorothiophen-2-yl)-6,7-dihydro-5H-cyclopenta[d]pyrimidin-4-yloxy)phenyl)acetic acid] | 77 | < 0.1 |
| Cc1sc(-c2nc3c(c(Oc4ccc(CC(=O)O)cc4)n2)CCC3)cc1Br [Compound 50, 2-(4-(2-(4-Bromo-5-methylthiophen-2-yl)-6,7-dihydro-5H-cyclopenta[d]pyrimidin-4-yloxy)phenyl)acetic acid] | 47 |  |
| O=C(O)Cc1ccc(Oc2nc(-c3ccc(Cl)s3)nc3c2CCCC3)cc1 [Compound 10, 2-(4-(2-(5-Chlorothiophen-2-yl)-5,6,7,8-tetrahydroquinazolin-4-yloxy)phenyl)acetic acid] | 49 |  |
| O=C(O)Cc1ccc(Oc2nc(-c3ccc(Cl)s3)nc3c2C[S+]([O-])C3)cc1 (stereo not drawn) [Compound 20, 2-[4-[[2-(5-Chloro-thiophen-2-yl)-6-oxo-5,7-dihydro-thieno[3,4-d]pyrimidin-4-yl]oxy]-phenyl]-acetic acid] | 103 | < 0.1 |
| O=C(O)Cc1ccc(Oc2nc(-c3ccc(Cl)s3)nc3c2CSCC3)cc1 [Compound 22, 2-(4-(2-(5-Chlorothiophen-2-yl)-7,8-dihydro-5H-thiopyrano[4,3-d]pyrimidin-4-yloxy)phenyl)acetic acid] | 50 |  |
| CSc1ccc(-c2nc3c(c(Oc4ccc(CC(=O)O)cc4)n2)CCC3)s1 [Compound 51, 2-(4-(2-(5-(Methylthio)thiophen-2-yl)-6,7-dihydro-5H-cyclopenta[d]pyrimidin-4-yloxy)phenyl)acetic acid] | 84 |  |
| O=C(O)Cc1ccc(Oc2nc(-c3cnc(Cl)s3)nc3c2CCC3)cc1 [Compound 46, 2-(4-(2-(2-Chlorothiazol-5-yl)-6,7-dihydro-5H-cyclopenta[d]pyrimidin-4-yloxy)phenyl)acetic acid] | 76 |  |
| O=C(O)Cc1ccc(Oc2nc(-c3ccc(O)c(Cl)c3)nc3c2CCC3)cc1 [Compound 13, 2-(4-(2-(3-Chloro-4-hydroxyphenyl)-6,7-dihydro-5H-cyclopenta[d]pyrimidin-4-yloxy)phenyl)acetic acid] | 72 |  |
| O=C(O)Cc1ccc(Oc2nc(-c3ccc(Br)cc3)nc3c2CCC3)cc1 [Compound 53, 2-(4-((2-(4-Bromophenyl)-6,7-dihydro-5H-cyclopenta[d]pyrimidin-4-yl)oxy)phenyl)acetic acid] | 51 |  |
| COc1ccc(-c2nc3c(c(Oc4ccc(CC(=O)O)cc4)n2)CS(=O)(=O)C3)cc1F [Compound 16, 2-[4-[[2-(3-Fluoro-4-methoxy-phenyl)-6,6-dioxo-5,7-dihydro-thieno[3,4-d]pyrimidin-4-yl]oxy]-phenyl]-acetic acid] | 89 | < 0.1 |
| O=C(O)c1ccc(Oc2nc(-c3ccc(F)c(F)c3)nc3c2CCC3)cc1 [Compound 6, 4-(2-(3,4-Difluorophenyl)-6,7-dihydro-5H-cyclopenta[d]pyrimidin-4-yloxy)benzoic acid] | 55 |  |
| O=C(O)Cc1ccc(Oc2nc(-c3ccc(Cl)s3)nc3c2C[S+]([O-])CC3)cc1 (stereo not drawn) [Compound 23, 2-[4-[[2-(5-Chloro-thiophen-2-yl)-6-oxo-7,8-dihydro-5H-thiopyrano[4,3-d]pyrimidin-4-yl]oxy]-phenyl]-acetic acid] | 18 |  |
| O=C(O)Cc1ccc(Oc2nc(-c3ccc(Cl)s3)nc3c2CSC3)cc1 [Compound 19, 2-(4-(2-(5-Chlorothiophen-2-yl)-5,7-dihydrothieno[3,4-d]pyrimidin-4-yloxy)phenyl)acetic acid] | 98 | < 0.1 |
| O=C(O)Cc1ccc(Oc2nc(-c3ccc(Br)s3)nc3c2CCC3)cc1 [Compound 49, 2-(4-(2-(5-Bromothiophen-2-yl)-6,7-dihydro-5H-cyclopenta[d]pyrimidin-4-yloxy)phenyl)acetic acid] | 59 |  |
